Results reported in patent US20240270762A1, “PENICILLIN-BINDING PROTEIN INHIBITORS” (priority 2021, published 2024).

Tests used:
[1] = molecular target: T1, PBP3 from Escherichia coli (K-12) (Escherichia coli, UniProt P0AD68); assay: Bocillin-FL fluorescence polarization competition binding, E. coli PBP3
T1 construct: made in house
Summary of the method: (§1)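 Purified PBP was preincubated with inhibitor (E. coli PBP3 1.5 μM, 30 min; P. aeruginosa PBP3 0.75 μM, A. baumannii PBP3 0.2 μM and PBP1a 1 μM, 15 min), then Bocillin-FL (0.1 μM; 0.05 μM for PBP1a) added and FP read up to 60 min. EC50 = 50% loss of bound probe.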

[2] = molecular target: T2, PBP3 from Acinetobacter baumannii (ATCC 19606) (Acinetobacter baumannii, UniProt A0ABX6CK25); assay: Bocillin-FL fluorescence polarization competition binding, A. baumannii PBP3; conditions: fluorescence polarization competition binding assay using Bocillin-FL; read-out: A. baumannii PBP3 Potency
T2 sequence (A0ABX6CK25 64-610): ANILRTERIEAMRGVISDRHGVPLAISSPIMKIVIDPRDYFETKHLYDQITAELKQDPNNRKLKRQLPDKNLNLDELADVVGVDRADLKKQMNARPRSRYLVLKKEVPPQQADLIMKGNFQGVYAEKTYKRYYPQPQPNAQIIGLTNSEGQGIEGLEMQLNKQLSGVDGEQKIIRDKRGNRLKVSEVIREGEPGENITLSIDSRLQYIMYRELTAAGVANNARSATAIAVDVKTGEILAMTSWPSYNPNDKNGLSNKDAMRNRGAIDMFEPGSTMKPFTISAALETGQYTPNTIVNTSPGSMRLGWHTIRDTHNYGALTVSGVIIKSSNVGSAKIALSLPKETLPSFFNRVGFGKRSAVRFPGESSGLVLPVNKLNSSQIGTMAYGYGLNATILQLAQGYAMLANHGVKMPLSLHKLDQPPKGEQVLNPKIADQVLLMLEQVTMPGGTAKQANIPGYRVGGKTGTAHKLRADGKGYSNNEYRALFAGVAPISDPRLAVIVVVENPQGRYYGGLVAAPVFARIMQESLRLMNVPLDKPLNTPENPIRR
Summary of the method: as §1

T1 sequence (P0AD68 1-577): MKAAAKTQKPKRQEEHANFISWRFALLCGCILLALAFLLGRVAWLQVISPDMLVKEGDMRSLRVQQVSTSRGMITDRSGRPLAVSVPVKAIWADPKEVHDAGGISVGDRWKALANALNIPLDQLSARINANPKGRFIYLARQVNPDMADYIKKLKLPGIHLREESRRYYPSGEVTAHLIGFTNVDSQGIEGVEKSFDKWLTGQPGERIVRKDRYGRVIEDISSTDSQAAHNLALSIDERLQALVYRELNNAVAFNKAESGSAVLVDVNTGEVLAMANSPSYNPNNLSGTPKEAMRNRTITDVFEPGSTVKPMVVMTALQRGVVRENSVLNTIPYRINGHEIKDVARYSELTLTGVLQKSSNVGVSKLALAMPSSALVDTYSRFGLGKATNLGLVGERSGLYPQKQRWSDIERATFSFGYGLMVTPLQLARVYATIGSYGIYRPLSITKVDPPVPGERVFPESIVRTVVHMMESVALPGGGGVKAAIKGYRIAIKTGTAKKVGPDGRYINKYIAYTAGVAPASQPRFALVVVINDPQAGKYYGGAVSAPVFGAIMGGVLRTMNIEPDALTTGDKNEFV

SMILES | EC50 [1] [µM] | IC50 [2] [µM]
O=C(NCCCN1CCN(C(=O)NC(C(=O)N[C@H]2Cc3ccc(F)c(C(=O)O)c3OB2O)c2cc(F)c(O)c(O)c2Cl)C(=O)C1=O)c1ccc(F)c(O)c1Cl (stereo partly drawn) [Example 412, (3R)-3-(2-(4-(3-(2-chloro-4-fluoro-3-hydroxybenzamido)propyl)-2,3-dioxopiperazine-1-carboxamido)-2-(2-chloro-5-fluoro-3,4-dihydroxyphenyl)acetamido)-7-fluoro-2-hydroxy-3,4-dihydro-2H-benzo[e][1,2]oxaborinine-8-carboxylic acid] | < 10 | < 10
O=C(NCCCN1CCN(C(=O)NC(C(=O)N[C@H]2Cc3ccc(F)c(C(=O)O)c3OB2O)c2cc(F)c(O)c(O)c2Cl)C(=O)C1=O)c1ccncc1F (stereo partly drawn) [Example 400, (3R)-3-(2-(2-chloro-5-fluoro-3,4-dihydroxyphenyl)-2-(4-(3-(3-fluoroisonicotinamido)propyl)-2,3-dioxopiperazine-1-carboxamido)acetamido)-7-fluoro-2-hydroxy-3,4-dihydro-2H-benzo[e][1,2]oxaborinine-8-carboxylic acid] | < 10 | < 10
O=C(NCCCN1CCN(C(=O)N[C@@H](C(=O)N[C@H]2Cc3ccc(F)c(C(=O)O)c3OB2O)c2cc(F)c(O)c(O)c2Cl)C(=O)C1=O)c1c(F)cc(O)cc1F (racemic) [Example 420] | < 10 | < 10
O=C(NCCCN1CCN(C(=O)NC(C(=O)N[C@H]2Cc3ccc(F)c(C(=O)O)c3OB2O)c2cc(F)c(O)c(O)c2Cl)C(=O)C1=O)c1c(F)cncc1F (stereo partly drawn) [Example 402, (3R)-3-(2-(2-chloro-5-fluoro-3,4-dihydroxyphenyl)-2-(4-(3-(3,5-difluoroisonicotinamido)propyl)-2,3-dioxopiperazine-1-carboxamido)acetamido)-7-fluoro-2-hydroxy-3,4-dihydro-2H-benzo[e][1,2]oxaborinine-8-carboxylic acid] | < 10 | < 10
O=C(O)c1c(F)ccc2c1OB(O)[C@@H](NC(=O)C(NC(=O)N1CCN(C3CCN(S(=O)(=O)c4ccc(O)cc4)CC3)C(=O)C1=O)c1cc(F)c(O)c(O)c1Cl)C2 (stereo partly drawn) [Example 429, (3R)-3-(2-(2-chloro-5-fluoro-3,4-dihydroxyphenyl)-2-(4-(1-((4-hydroxyphenyl)sulfonyl)piperidin-4-yl)-2,3-dioxopiperazine-1-carboxamido)acetamido)-7-fluoro-2-hydroxy-3,4-dihydro-2H-benzo[e][1,2]oxaborinine-8-carboxylic acid] | < 10 | < 10
O=C(NCCCN1CCN(C(=O)NC(C(=O)N[C@H]2Cc3ccc(F)c(C(=O)O)c3OB2O)c2cc(F)c(O)c(O)c2Cl)C(=O)C1=O)c1cc(O)c(F)c(O)c1F (stereo partly drawn) [Example 415, (3R)-3-(2-(2-chloro-5-fluoro-3,4-dihydroxyphenyl)-2-(4-(3-(2,4-difluoro-3,5-dihydroxybenzamido)propyl)-2,3-dioxopiperazine-1-carboxamido)acetamido)-7-fluoro-2-hydroxy-3,4-dihydro-2H-benzo[e][1,2]oxaborinine-8-carboxylic acid] | 10 to 50 | < 10
O=C(NCCCN1CCN(C(=O)N[C@@H](C(=O)N[C@H]2Cc3ccc(F)c(C(=O)O)c3OB2O)c2cc(F)c(O)c(O)c2Cl)C(=O)C1=O)c1ccc(O)cc1F (racemic) [Example 417] | < 10 | 10 to 50
O=C(O)c1c(F)ccc2c1OB(O)[C@@H](NC(=O)[C@@H](NC(=O)N1CCN(C3CCN(C(=O)Nc4ccc(O)cc4)CC3)C1=O)c1cc(F)c(O)c(O)c1Cl)C2 (single isomer, unassigned) [Example 467] |  | < 10
O=C(NCCCN1CCN(C(=O)N[C@H](C(=O)N[C@H]2Cc3ccc(F)c(C(=O)O)c3OB2O)c2cc(F)c(O)c(O)c2Cl)C(=O)C1=O)c1cc(F)c(O)cc1F (single isomer, unassigned) [Example 472] | 50 to 250 | < 10
O=C(NCCCN1CCN(C(=O)N[C@@H](C(=O)N[C@H]2Cc3ccc(F)c(C(=O)O)c3OB2O)c2cc(F)c(O)c(O)c2Cl)C(=O)C1=O)c1cc(F)c(O)c(F)c1 [Example 422, (R)-3-((R)-2-(2-chloro-5-fluoro-3,4-dihydroxyphenyl)-2-(4-(3-(3,5-difluoro-4-hydroxybenzamido)propyl)-2,3-dioxopiperazine-1-carboxamido)acetamido)-7-fluoro-2-hydroxy-3,4-dihydro-2H-benzo[e][1,2]oxaborinine-8-carboxylic acid] | < 10 | < 10
O=C(O)c1c(F)ccc2c1OB(O)[C@@H](NC(=O)C(NC(=O)N1CCN(C3CCN(C(=O)c4cncc(O)c4)CC3)C(=O)C1=O)c1cc(F)c(O)c(O)c1Cl)C2 (stereo partly drawn) [Example 425, (3R)-3-(2-(2-chloro-5-fluoro-3,4-dihydroxyphenyl)-2-(4-(1-(5-hydroxynicotinoyl)piperidin-4-yl)-2,3-dioxopiperazine-1-carboxamido)acetamido)-7-fluoro-2-hydroxy-3,4-dihydro-2H-benzo[e][1,2]oxaborinine-8-carboxylic acid] | < 10 | < 10
O=C(NCCCN1CCN(C(=O)NC(C(=O)N[C@H]2Cc3ccc(F)c(C(=O)O)c3OB2O)c2cc(F)c(O)c(O)c2Cl)C(=O)C1=O)c1ccc(O)c(Cl)c1F (stereo partly drawn) [Example 419, (3R)-3-(2-(4-(3-(3-chloro-2-fluoro-4-hydroxybenzamido)propyl)-2,3-dioxopiperazine-1-carboxamido)-2-(2-chloro-5-fluoro-3,4-dihydroxyphenyl)acetamido)-7-fluoro-2-hydroxy-3,4-dihydro-2H-benzo[e][1,2]oxaborinine-8-carboxylic acid] | < 10 | < 10
O=C(NCCCN1CCN(C(=O)NC(C(=O)N[C@H]2Cc3ccc(F)c(C(=O)O)c3OB2O)c2cc(F)c(O)c(O)c2Cl)C(=O)C1=O)c1cc(O)cc(F)c1 (stereo partly drawn) [Example 410, (3R)-3-(2-(2-chloro-5-fluoro-3,4-dihydroxyphenyl)-2-(4-(3-(3-fluoro-5-hydroxybenzamido)propyl)-2,3-dioxopiperazine-1-carboxamido)acetamido)-7-fluoro-2-hydroxy-3,4-dihydro-2H-benzo[e][1,2]oxaborinine-8-carboxylic acid] | < 10 | < 10
O=C(O)c1c(F)ccc2c1OB(O)[C@@H](NC(=O)[C@H](NC(=O)N1CCN(C3CCN(C(=O)Nc4ccc(O)cc4)CC3)C1=O)c1cc(F)c(O)c(O)c1Cl)C2 (single isomer, unassigned) [Example 468] |  | < 10
O=C(NCCCN1CCN(C(=O)NC(C(=O)N[C@H]2Cc3ccc(F)c(C(=O)O)c3OB2O)c2cc(F)c(O)c(O)c2Cl)C(=O)C1=O)c1ccc(F)c(O)c1F (stereo partly drawn) [Example 411, (3R)-3-(2-(2-chloro-5-fluoro-3,4-dihydroxyphenyl)-2-(4-(3-(2,4-difluoro-3-hydroxybenzamido)propyl)-2,3-dioxopiperazine-1-carboxamido)acetamido)-7-fluoro-2-hydroxy-3,4-dihydro-2H-benzo[e][1,2]oxaborinine-8-carboxylic acid] | < 10 | < 10
O=C(O)c1c(F)ccc2c1OB(O)[C@@H](NC(=O)C(NC(=O)N1CCN(C3CCN(C(=O)c4c(F)ccc(O)c4F)CC3)C(=O)C1=O)c1cc(F)c(O)c(O)c1Cl)C2 (stereo partly drawn) [Example 308, (3R)-3-(2-(2-chloro-5-fluoro-3,4-dihydroxyphenyl)-2-(4-(1-(2,6-difluoro-3-hydroxybenzoyl)piperidin-4-yl)-2,3-dioxopiperazine-1-carboxamido)acetamido)-7-fluoro-2-hydroxy-3,4-dihydro-2H-benzo[e][1,2]oxaborinine-8-carboxylic acid] | < 10 | < 10
O=C(O)c1c(F)ccc2c1OB(O)[C@@H](NC(=O)C(NC(=O)N1CCN(C3CCN(C(=O)c4ccc(O)cc4O)CC3)C(=O)C1=O)c1cc(F)c(O)c(O)c1Cl)C2 (stereo partly drawn) [Example 476, (3R)-3-(2-(2-chloro-5-fluoro-3,4-dihydroxyphenyl)-2-(4-(1-(2,4-dihydroxybenzoyl)piperidin-4-yl)-2,3-dioxopiperazine-1-carboxamido)acetamido)-7-fluoro-2-hydroxy-3,4-dihydro-2H-benzo[e][1,2]oxaborinine-8-carboxylic acid] |  | < 10
O=C(O)c1c(F)ccc2c1OB(O)[C@@H](NC(=O)C(NC(=O)N1CCN(C3CCN(C(=O)Cc4cccc(O)c4)CC3)C(=O)C1=O)c1cc(F)c(O)c(O)c1Cl)C2 (stereo partly drawn) [Example 474, (3R)-3-(2-(2-chloro-5-fluoro-3,4-dihydroxyphenyl)-2-(4-(1-(2-(3-hydroxyphenyl)acetyl)piperidin-4-yl)-2,3-dioxopiperazine-1-carboxamido)acetamido)-7-fluoro-2-hydroxy-3,4-dihydro-2H-benzo[e][1,2]oxaborinine-8-carboxylic acid] |  | < 10
